These results are taken from US10315998B2, “Amide compound and the preparation method and use thereof” (SHENYANG SINOCHEM AGROCHEMICALS R&D CO., LTD, priority 2015, dated 2019).

What all share (assay type): in vivo
Test [1] concerns cucumber downy mildew (Pseudoperonospora cubensis (Berk. et Curt.) Rostov). The test is described as follows: Protective effect against cucumber downy mildew on potted plants. Particulars: grading 100-0 (100 no infection, 0 most serious infection), read-out: protectant activity against cucumber downy mildew. As for the experimental part:
(§1) Fungicidal activity of the compounds in the present invention against many kinds diseases were carried out. The procedure of fungicidal activity determination is as follows:
(§2) The fungicidal activity was tested in vivo manner on the potted plants. The test compounds of the present invention were dissolved in proper solvent (choosing the solvent according their dissolving ability to the compounds, the solvents could be acetone, methanol or N,N-dimethylformide, etc. The volume ratio between solvent and liquid sprayed was equal to or less than 0.05) and dilute with water contain 0.1% Tween 80 to given concentrations. Compounds of present invention was sprayed onto the leaves of seedling according to the designed concentration. Meanwhile, water was set as the blank control, three replicates were set for each treatment, the spore suspension were inoculated on the second day after treatment, then the plants were placed in an artificial climate chamber (temperature: day 25° C., night 20° C., relative humidity 95 to 100%). 24 hours later, the plants were moved to green house to cultivated. The plants which not need to control humidity was inoculated spore suspension in green house and cultivated in green house directly. The results were investigated after the plants were fully infected relative to the blank control (usually one week). The test resluts grading 100-0 refers to the <A Manual of Assessment Keys for Plant Diseases> which edited by American Phytopathological Society. “100” refer to no infection and “0” refer to the most serious infection
Protective effect against cucumber downy mildew (Pseudoperonospora cubensis (Berk. et Curt.) Rostov)
According the test method described above, parallel test were carried out between compounds 2, 4, 11, 13, 71 and 111 of present invention and the known compounds KC1, KC2, KC3, KC4, KC5 and KC6 (The compounds were self-made and the structure was confirmed by ^1H NMR consistent with the description of the procedures).

Test [2] relates to corn rust (Puccinia sorghi Schw.). The experiment in a line: Protective effect against corn rust on potted plants. Particulars: grading 100-0. As for the experimental part:
as §1, §2
Protective Effect Against Corn Rust (Puccinia sorghi Schw.):
According the test method described above, parallel test were carried out between compound 13 of present invention and the known compound KC1.
According the test method described above, parallel test were carried out between compound 11 of present invention and the known compound KC2.
According the test method described above, parallel test were carried out between compound 71 of present invention and the known compounds KC5 and KC6.

In test [3] the test system is cucumber anthracnose (Colletotrichum orbiculare). The test is described as follows: Protective effect against cucumber anthracnose on potted plants. Particulars: 400 ppm, foliar spray. The protocol:
as §1
The fungicidal activity was tested in vivo manner on the potted plants. The test compounds of the present invention were dissolved in proper solvent (choosing the solvent according their dissolving ability to the compounds, the solvents could be acetone, methanol or N,N-dimethylformide, etc. The volume ratio between solvent and liquid sprayed was equal to or less than 0.05) and dilute with water contain 0.1% Tween 80 to given concentrations. Compounds of present invention was sprayed onto the leaves of seedling according to the designed concentration. Meanwhile, water was set as the blank control, three replicates were set for each treatment, the spore suspension were inoculated on the second day after treatment, then the plants were placed in an artificial climate chamber (temperature: day 25° C., night 20° C., relative humidity 95 to 100%). 24 hours later, the plants were moved to green house to cultivated. The plants which not need to control humidity was inoculated spore suspension in green house and cultivated in green house directly. The results were investigated after the plants were fully infected relative to the blank control (usually one week). […]

Molecules are shown by their SMILES.

Turning to `CCCCC(C)Oc1cccc(NC(=O)c2cn(C)nc2C(C)C)c1C` (stereo not shown) [Compound 2], the pest or weed control at 400 ppm in test [1] was 100%.

Consider `Cc1nn(C)cc1C(=O)Nc1cccc(OC(C)C)c1C` [KC3, reference compound], for which, in test [1], the pest or weed control at 400 ppm is 0%.

For `CCCC(C)Oc1cccc(NC(=O)c2sc(C(F)(F)F)nc2CC)c1C` (stereo not shown) [Compound 111], the pest or weed control at 400 ppm in test [1] came out at 100%.

On to `Cc1nc(C)c(C(=O)Nc2cccc(OC(C)C)c2)s1` [KC5, reference compound], for which, in test [1], the pest or weed control at 400 ppm was 0%.

Consider `Cc1c(NC(=O)c2c(C(F)(F)F)nn(C)c2Cl)cccc1OC(C)C` [KC2, reference compound], for which the pest or weed control at 400 ppm in test [1] is 0%. Moreover, the “protectant activity against corn rust” value in test [2] (0.39 ppm, table 4) is recorded as 0; in test [2] (1.5625 ppm, table 4), 65; in test [2] (6.25 ppm, table 4), 100.

As to `Cc1c(NC(=O)c2cn(C)nc2C(F)(F)F)cccc1OC(C)C` [KC1, reference compound], the pest or weed control at 400 ppm in test [1] worked out at 0%. The “protectant activity against corn rust” value in test [2] (6.25 ppm, table 3) is 50; in test [2] (400 ppm, table 3), 100.

Regarding `CCCCC(C)Oc1cccc(NC(=O)c2c(C(F)F)nn(C)c2Cl)c1C` (stereo not shown) [Compound 11], the pest or weed control at 400 ppm in test [1] was found to be 85%. Also, the “protectant activity against corn rust” value in test [2] (0.39 ppm, table 4) is 100; in test [2] (1.5625 ppm, table 4), 100; in test [2] (6.25 ppm, table 4) it was 100.

`CCCCC(C)Oc1cccc(NC(=O)c2c(C)nn(C)c2Cl)c1C` (stereo not shown) [Compound 4]: the “protective effect against cucumber anthracnose” value in test [3] is reported as ≥ 80%. Also, the pest or weed control at 400 ppm in test [1] is 100%.

Regarding `CCCCC(C)Oc1cccc(NC(=O)c2cn(C)nc2C(F)(F)F)c1C` (stereo not shown) [Compound 13], in test [1], the pest or weed control at 400 ppm came to 100%. Also, the “protectant activity against corn rust” value in test [2] (6.25 ppm, table 3) is given as 100; in test [2] (400 ppm, table 3), 100.

`Cc1nn(C)c(Cl)c1C(=O)Nc1cccc(OC(C)C)c1C` [KC4, reference compound]: the pest or weed control at 400 ppm in test [1] was 0%.

As to `CCCCC(C)Oc1cccc(NC(=O)c2sc(C)nc2C(F)(F)F)c1C` (stereo not shown) [Compound 71], the pest or weed control at 400 ppm in test [1] stood at 100%. Further, the “protectant activity against corn rust” value in test [2] (1.56 ppm, table 5) is 100; in test [2] (6.25 ppm, table 5), 100; in test [2] (400 ppm, table 5), 100.
